Results taken from patent US20100267712A1, “ISOINDOLINE COMPOUNDS FOR THE TREATMENT OF SPINAL MUSCULAR ATROPHY AND OTHER USES” (The United States of America, as represented by the …, priority 2007, published 2010).

What was measured:
[1] = test system: translational stop codon read-through, human SMN2 open reading frame-luciferase; experiment: Translational read-through luciferase reporter assay (luciferase preceded by the open reading frame of the human SMN2 gene); assay type: cell-based
In short: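 Cell-based reporter with luciferase downstream of the human SMN2 open reading frame, carrying a translational stop codon within the coding sequence; compounds promoting stop-codon read-through yield active luciferase, detected by chemiluminescence.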

[2] = test system: SMN protein; experiment: Western blot of total cellular SMN protein in SMA type I fibroblasts; assay type: cell-based, human; conditions: 48 hours, 3813 cells
Description: Western blots were performed using standard methods. SMA type I fibroblasts (3813 cells; Coriell Cell Repositories) were treated with compounds for 48 hours. Monoclonal SMN anti-SMN antibody 4B7 (Wolstencroft et al., Hum Mil Genet, 14:1199-1210 (2005)) was used to identify SMN protein. Tubulin was used as an internal normalization standard. DMSO treatment serves as the negative control.

[3] = test system: SMN2-linked luciferase-reporter gene construct; experiment: SMN Splice Reporter Assay (SMN2-linked luciferase reporter); assay type: cell-based; conditions: for EC50: cervical carcinoma cell lines, SMN2 splice luciferase reporter; for Fold Increase: fold-increase of luciferase over baseline reading of transformed cells without any test compound
In short: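 Cervical carcinoma cells carrying an SMN2-luciferase splicing reporter, in-frame only with exon 7 inclusion, were treated with compound. Luciferase activity reported as fold increase over untreated transformed cells, with EC50 derived.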

[4] = test system: SMN-containing gems in type 1 SMA patient fibroblasts (3813 cells); experiment: SMN-containing gem count in SMA patient fibroblasts; assay type: cell-based, human; conditions: 48 hours, 3813 fibroblasts
Source text: SMN protein can be found in punctate nuclear particles called “gems” (Liu and Dreyfuss, EMBO J, 15 (14): 3555-3565 (1996)). In fibroblast cells derived from SMA patients, the number of gems corresponds to disease severity as follows: severe type 1 patients have approximately 5 gems per 100 nuclei; mild type 3 patients have 20-50 gems per 100 nuclei; normal individuals have approximately 100-150 gems per 100 nuclei (Coovert et al., Hum Mol Genet, 6 (8): 1205-1214 (1997), Young et al., Exp Cell Res, 265 (2): 252-261 (2001)).
Gems are detectable by immunohistochemistry and gem counts in patient fibroblasts have been used to test the ability of compounds to increase SMN protein levels (Mattis et al., Hum Genet, 120: 589-601 (2006)). Following these methods, fibroblast cells from a type 1 SMA patient (3813 cells, Coriell Cell Repositories) were treated for 48 hours with a compound of the invention. The cells were then fixed and incubated with a monoclonal antibody against SMN (4B7, Wolstencroft et al., Hum Mol Genet, 14: 1199-1210 (2005)). A FITC-conjugated anti-mouse secondary antibody was used to visualize the labeled gems. A positive control in these experiments was provided by fibroblasts from the same patient treated with 1000 μM valproic acid.

[5] = test system: SMA model mouse fetuses; conditions: administered in utero; cited from earlier work
[6] = test system: SMN protein; conditions: cited from earlier work

SMILES | EC50 [1] [nM] | maximal fold induction [1] | SMN:Tubulin ratio as % of Vehicle Control ([2]; 0.1 μM) [%] | EC50 [3] [nM] | Fold Increase [3] | Average number of gems per 100 nuclei ([4]; 0.1 μM compound) | SMN:Tubulin ratio as % of Vehicle Control ([2]; 1 μM) [%] | SMN:Tubulin ratio as % of Vehicle Control ([2]; 3 μM) [%] | Average number of gems per 100 nuclei ([4]; 1 μM compound) | survival of SMA model mouse fetuses [5] | production of SMN from the endogenous SMN2 gene ([6]; SMA patient fibroblasts) | level of expression of SMN protein ([6]; cultured cells, Lunn et al. 2004) | luciferase activity ([3]; result in words)
COc1ccc2c(c1)C(=O)N(c1ccc3occc3c1)C2 [Example 119047] | 4280 | 2.04 | 125.19 | 59 | 1.456 | 32 |  |  |  |  |  |  | 
COc1ccc2c(c1)C(=O)N(c1ccc3ncsc3c1)C2 [Example 120596] | 1720 | 2.23 |  | 126 | 1.591 | 148 | 124.41 |  |  |  |  |  | 
COc1ccc2c(c1)C(=O)N(c1ccc3cn[nH]c3c1)C2 [Example 120602] | 1110 | 2.12 |  | 154 | 1.412 | 68 | 123.67 |  |  |  |  |  | 
CC(C)Oc1ccc2c(c1)C(=O)N(c1ccc3ccn(C)c3c1)C2 [Example 124326] | 129 | 0.946 |  | 170 | 1.666 |  |  | 147.687 | 98 |  |  |  | 
CC(C(=O)O)c1ccc(N2Cc3ccccc3C2=O)cc1 (stereo not shown) [Indoprofen, indoprofen] |  |  |  |  |  |  |  |  |  | increase survival | increase in production of SMN | increases the level of expression of SMN protein | increases luciferase activity
